{"source": "ChEMBL document CHEMBL6103654", "about": "“Design, Biological Characterization, and Discovery of Capromorelin Derivatives as Oral Growth Hormone Secretagogue Receptor Type 1a Agonist for the Treatment of Growth Hormone Deficiency” (J Med Chem, 2025)", "key": {"Rattus norvegicus [1]": {"system": "Rattus norvegicus", "assay": "Induction of growth hormone level in Juvenile Sprague-Dawley rat blood by measuring AUC(0 to 40 mins) at 0.1 mg/kg, po administered as single dose by ELISA method (reference value: 20.2+/-4.3 ng/mL)", "format": "functional, organism-based", "conditions": "time 4.0 hrs"}, "[2]": {"assay": "Metabolic stability in rat liver microsome assessed as intrinsic clearance at 1 uM measured upto 60 mins in presence of NADPH by LC-MS/MS analysis", "format": "ADME", "conditions": "liver microsomes, read-out: CLH"}, "Rattus norvegicus [3]": {"system": "Rattus norvegicus", "assay": "Induction of growth hormone level in Juvenile Sprague-Dawley rat blood at 0.2 mg/kg, po administered as single dose measured after 20 mins by ELISA method (reference value: 29.1+/-8.6 ng/mL)", "format": "functional"}, "[4]": {"assay": "Clearance in male dog plasma at 0.5 mg/kg, iv administered as single dose measured after 4 hrs", "format": "ADME, organism-based, Canis lupus familiaris"}, "[5]": {"assay": "Cmax in male Sprague-Dawley rat at 2 mg/kg, po administered as single dose measured after 4 hrs", "format": "ADME, organism-based", "conditions": "in vivo"}, "[6]": {"assay": "Cmax in male monkey at 2 mg/kg, po administered as single dose measured after 4 hrs", "format": "ADME, organism-based, Macaca mulatta", "conditions": "rhesus monkey, in vivo"}, "[7]": {"assay": "Toxicity in Sprague-Dawley rat assessed as effect on hepatic cords at 10 to 100 mg/kg, po administered once daily for 14 days", "format": "organism-based", "conditions": "in vivo, 336 h, dose 10-100 mg/kg, time 14 day"}, "CHO": {"system": "CHO", "assay": "Agonist activity at dog GHSR expressed in CHO cells at maximum concentration incubated for 60 min by FLIPR assay relative to control", "format": "cell-based", "conditions": "Canis lupus familiaris, filed as agonist"}, "[8]": {"assay": "Metabolic stability in monkey liver microsome assessed as half life at 1 uM measured upto 60 mins in presence of NADPH by LC-MS/MS analysis", "format": "ADME, Macaca mulatta", "conditions": "rhesus monkey, liver microsomes"}, "Rattus norvegicus [9]": {"system": "Rattus norvegicus", "assay": "Induction of growth hormone level in adult Sprague-Dawley rat blood at 0.5 mg/kg, po administered as single dose measured after 20 mins by ELISA method (reference value: 4.9+/-1.1 ng/mL)", "format": "functional"}, "[10]": {"assay": "Plasma protein binding in human assessed as unbound fraction measured after 6 hrs by dialysis method", "format": "ADME, cell-free"}, "Rattus norvegicus [11]": {"system": "Rattus norvegicus", "assay": "Induction of growth hormone level in 6 week-old male Sprague-Dawley rat assessed as increase in body length at 2.5 mg/kg, po measured after 10 days", "format": "functional, organism-based", "conditions": "time 10.0 day"}, "[12]": {"assay": "Volume of distribution in male monkey at 0.5 mg/kg, iv administered as single dose measured after 4 hrs", "format": "ADME, organism-based, Macaca mulatta", "conditions": "rhesus monkey, in vivo"}, "[13]": {"assay": "Cmax in male mouse at 2 mg/kg, po administered as single dose measured after 4 hrs", "format": "ADME, organism-based", "conditions": "in vivo"}, "[14]": {"assay": "AUC in male monkey at 2 mg/kg, po administered as single dose measured after 4 hrs", "format": "ADME, organism-based, Macaca mulatta", "conditions": "rhesus monkey, in vivo"}, "Rattus norvegicus [15]": {"system": "Rattus norvegicus", "assay": "Induction of growth hormone level in adult Sprague-Dawley rat blood at 0.1 mg/kg, po administered as single dose measured after 20 mins by ELISA method (reference value: 4.9+/-1.1 ng/mL)", "format": "functional"}, "[16]": {"assay": "Genotoxicity in Salmonella typhimurium TA1537 by Ames test", "format": "toxicity", "conditions": "salmonella enterica subsp. enterica serovar typhimurium"}, "[17]": {"assay": "Genotoxicity in Salmonella typhimurium TA1535 by Ames test", "format": "toxicity", "conditions": "salmonella enterica subsp. enterica serovar typhimurium"}, "Rattus norvegicus [18]": {"system": "Rattus norvegicus", "assay": "Induction of growth hormone level in adult Sprague-Dawley rat blood by measuring AUC(0 to 40 mins) at 0.1 mg/kg, po administered as single dose by ELISA method (reference value: 7.0+/-1.7 ng/mL)", "format": "functional, organism-based"}, "Cytochrome P450 3A4": {"target": "Cytochrome P450 3A4 (Homo sapiens, UniProt P08684)", "sequence (P08684 whole entry)": "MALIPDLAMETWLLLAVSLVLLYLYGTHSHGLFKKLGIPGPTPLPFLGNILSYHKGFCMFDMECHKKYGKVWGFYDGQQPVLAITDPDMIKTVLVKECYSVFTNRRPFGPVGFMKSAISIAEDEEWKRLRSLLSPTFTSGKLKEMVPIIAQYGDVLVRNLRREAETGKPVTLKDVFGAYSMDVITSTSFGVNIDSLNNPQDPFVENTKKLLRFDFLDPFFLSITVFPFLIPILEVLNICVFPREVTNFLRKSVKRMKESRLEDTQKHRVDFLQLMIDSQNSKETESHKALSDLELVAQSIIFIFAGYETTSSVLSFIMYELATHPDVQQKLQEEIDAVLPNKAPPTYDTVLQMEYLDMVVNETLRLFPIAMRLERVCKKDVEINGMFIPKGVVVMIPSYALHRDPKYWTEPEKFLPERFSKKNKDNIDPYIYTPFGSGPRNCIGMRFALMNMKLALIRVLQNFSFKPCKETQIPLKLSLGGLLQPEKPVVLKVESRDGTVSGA", "assay": "Inhibition of CYP3A4 in human liver microsome using midazolam as substrate incubated for 5 min in presence of NADPH by UPLC-MS/MS analysis", "format": "ADME, microsomes"}, "[19]": {"assay": "Oral bioavailability in male mouse at 2 mg/kg administered as single dose measured after 4 hrs", "format": "ADME, organism-based", "conditions": "in vivo"}, "Rattus norvegicus [20]": {"system": "Rattus norvegicus", "assay": "Induction of growth hormone level in adult Sprague-Dawley rat blood at 0.5 mg/kg, po administered as single dose measured after 40 mins by ELISA method (reference value: 14.4+/-6.9 ng/mL)", "format": "functional"}, "Cytochrome P450 2C9": {"target": "Cytochrome P450 2C9 (Homo sapiens, UniProt P11712)", "sequence (P11712 whole entry)": "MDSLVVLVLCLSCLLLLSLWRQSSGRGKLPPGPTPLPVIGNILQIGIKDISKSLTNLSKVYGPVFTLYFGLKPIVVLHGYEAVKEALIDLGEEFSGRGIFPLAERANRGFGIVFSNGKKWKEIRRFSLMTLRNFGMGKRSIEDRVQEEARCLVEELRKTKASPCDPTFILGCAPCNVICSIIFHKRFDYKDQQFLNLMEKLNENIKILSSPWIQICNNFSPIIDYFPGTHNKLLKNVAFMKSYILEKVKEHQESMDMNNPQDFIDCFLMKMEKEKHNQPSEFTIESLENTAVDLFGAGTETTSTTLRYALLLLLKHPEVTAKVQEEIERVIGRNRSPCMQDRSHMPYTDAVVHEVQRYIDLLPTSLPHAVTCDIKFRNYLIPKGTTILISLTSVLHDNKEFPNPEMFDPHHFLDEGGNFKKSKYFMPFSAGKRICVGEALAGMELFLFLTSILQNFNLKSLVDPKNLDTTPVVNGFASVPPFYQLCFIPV", "assay": "Inhibition of CYP2C9 in human liver microsome incubated for 5 min in presence of NADPH by UPLC-MS/MS analysis", "format": "ADME, microsomes"}, "Rattus norvegicus [21]": {"species_on_record": "Rattus norvegicus", "assay": "Induction of growth hormone level in 4 week-old Sprague-Dawley rat assessed as increase in body length measured after 10 days", "format": "functional, organism-based", "conditions": "time 10.0 day"}, "Rattus norvegicus [22]": {"system": "Rattus norvegicus", "assay": "Induction of growth hormone level in Juvenile Sprague-Dawley rat blood at 0.2 mg/kg, po administered as single dose measured after 4 hrs by ELISA method (reference value: 32.5+/-4.5 ng/mL)", "format": "functional"}, "[23]": {"assay": "Half life in male mouse at 2 mg/kg, po administered as single dose measured after 4 hrs", "format": "ADME, organism-based", "conditions": "in vivo"}}, "note": "The source made the active and inactive calls. The calls are words filed in the database; no cut-off is given here.", "data": [{"smiles": "CC(C)(N)C(=O)N[C@H](COCc1ccccc1)C(=O)N1CCC2=NN(C3CC3)C(=O)[C@]2(Cc2ccccc2)C1", "values": [{"measurement": "AUC", "setting": "Rattus norvegicus [1]", "result": 109, "unit": "ng·h/mL"}, {"measurement": "microsomal CLint at 1 µM", "setting": "[2]", "result": 140, "unit": "µL/min/mg"}, {"measurement": "Activity", "setting": "Rattus norvegicus [3]", "result": 217.8, "unit": "ng/mL"}, {"measurement": "clearance", "setting": "[4]", "result": 35, "unit": "mL/min/kg"}, {"measurement": "Cmax", "setting": "[5]", "result": 156, "unit": "ng/mL"}, {"measurement": "Cmax", "setting": "[6]", "result": 43.4, "unit": "ng/mL"}, {"measurement": "Activity", "setting": "[7]", "result": "Non-toxic"}, {"measurement": "Activity", "setting": "CHO", "result": 124, "unit": "%"}, {"measurement": "half-life at 1 µM", "setting": "[8]", "result": 3.1, "unit": "min"}, {"measurement": "Activity", "setting": "Rattus norvegicus [9]", "result": 68.8, "unit": "ng/mL"}, {"measurement": "fraction unbound at 6 h", "setting": "[10]", "result": 0.695}, {"measurement": "Activity", "setting": "Rattus norvegicus [11]", "result": "Active"}, {"measurement": "Vd", "setting": "[12]", "result": 2.36, "unit": "L/kg"}, {"measurement": "Cmax", "setting": "[13]", "result": 125, "unit": "ng/mL"}, {"measurement": "AUC", "setting": "[14]", "result": 75.13, "unit": "ng·h/mL"}, {"measurement": "Activity", "setting": "Rattus norvegicus [15]", "result": 74.5, "unit": "ng/mL"}, {"measurement": "Activity", "setting": "[16]", "result": "Non-toxic"}, {"measurement": "Activity", "setting": "[17]", "result": "Non-toxic"}, {"measurement": "AUC", "setting": "Rattus norvegicus [18]", "result": 61, "unit": "ng·h/mL"}, {"measurement": "IC50", "setting": "Cytochrome P450 3A4", "result": "> 30", "unit": "µM"}, {"measurement": "bioavailability", "setting": "[19]", "result": 33.9, "unit": "%"}, {"measurement": "Activity", "setting": "Rattus norvegicus [20]", "result": 27.8, "unit": "ng/mL"}, {"measurement": "IC50", "setting": "Cytochrome P450 2C9", "result": "> 30", "unit": "µM"}, {"measurement": "Activity", "setting": "Rattus norvegicus [21]", "result": "Dose-dependent-effect"}, {"measurement": "Activity", "setting": "Rattus norvegicus [22]", "result": 43.5, "unit": "ng/mL"}, {"measurement": "half-life", "setting": "[23]", "result": 91.2, "unit": "min"}]}]}
